Results published in patent publication US7799933B2, “Sulfonamide derivatives” (Hoffman-La Roche Inc., priority 2006, dated 2010).
pIC50: −log10 of the molar value.

Target: T1, L-CPT1 (human liver CPT1) (Homo sapiens, UniProt P50416)
T1 construct: made in house; host or cells: Pichia pastoris strain X-33 (pGAPZB/pGAPZA plasmids); crude cell-free extracts
T1 sequence (P50416 1-773): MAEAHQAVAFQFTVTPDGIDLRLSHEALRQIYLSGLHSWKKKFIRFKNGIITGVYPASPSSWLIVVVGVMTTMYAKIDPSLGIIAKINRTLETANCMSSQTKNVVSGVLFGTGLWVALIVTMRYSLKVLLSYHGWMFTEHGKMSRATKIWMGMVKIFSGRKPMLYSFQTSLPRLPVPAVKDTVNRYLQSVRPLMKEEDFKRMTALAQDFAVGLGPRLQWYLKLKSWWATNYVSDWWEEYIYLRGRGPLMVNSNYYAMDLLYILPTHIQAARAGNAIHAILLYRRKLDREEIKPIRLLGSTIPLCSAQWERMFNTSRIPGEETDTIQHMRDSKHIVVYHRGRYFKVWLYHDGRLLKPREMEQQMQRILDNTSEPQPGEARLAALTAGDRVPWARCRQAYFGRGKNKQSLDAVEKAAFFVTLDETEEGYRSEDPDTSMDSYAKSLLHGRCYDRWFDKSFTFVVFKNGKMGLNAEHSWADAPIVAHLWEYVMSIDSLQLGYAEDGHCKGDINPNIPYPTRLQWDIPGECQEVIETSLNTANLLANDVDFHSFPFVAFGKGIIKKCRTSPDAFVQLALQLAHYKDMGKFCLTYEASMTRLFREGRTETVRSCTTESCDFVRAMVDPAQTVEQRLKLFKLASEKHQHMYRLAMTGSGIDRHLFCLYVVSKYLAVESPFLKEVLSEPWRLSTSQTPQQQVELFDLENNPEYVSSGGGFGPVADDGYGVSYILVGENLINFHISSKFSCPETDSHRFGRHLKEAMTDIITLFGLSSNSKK
Assay: L-CPT1 inhibition, spectrophotometric CPT activity assay with DTNB (Ellman's reagent)
Assay type: biochemical
Settings: human liver CPT1 expressed in P. pastoris, cell extracts; carnitine 500 μM, palmitoyl-CoA 80 μM, DTNB 300 μM, pH 7.4

Row | pIC50 | Compound
1 | 6.68 | COc1ccc(Cl)cc1S(=O)(=O)N1CCc2c(C)cc(C(=O)Nc3ccc(CC(=O)O)cc3)cc21 [Example 14, (4-{[1-(5-Chloro-2-methoxy-benzenesulfonyl)-4-methyl-2,3-dihydro-1H-indole-6-carbonyl]-amino}-phenyl)-acetic acid]
2 | 6.90 | O=C(O)Cc1ccc(NC(=O)c2ccc3c(c2)N(S(=O)(=O)c2cccc(Cl)c2)CC3)cc1 [Example 7, (4-{[1-(3-Chloro-benzenesulfonyl)-2,3-dihydro-1H-indole-6-carbonyl]-amino}-phenyl)-acetic acid]
